Active and inactive are the calls of the source.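 The calls were made as follows: active = a rising curve with AC50 no higher than ten times the top valid dose of that compound; inconclusive = flat curve between 30 and 70 percent, or failed fit; inactive = the rest.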
Experiments:
[1] = test system: INS-1E cytokine-induced apoptosis, JC-1 mitochondrial potential, 48 h; experiment: protection from cytokine-driven beta-cell apoptosis, dose response, JC-1 fluorescence, INS-1E, dry powder, set 2 (AID 488867)
[2] = as above; settings: INS-1E cytokine-induced apoptosis, JC-1 mitochondrial potential, 48 h

| Compound | protection from cytokine-induced depolarization ([2]; at 26 µM (top of the series)) | also measured |
| --- | --- | --- |
| Cc1ccc(S(=O)(=O)N(C)C[C@@H]2Oc3c(NC(=O)Nc4ccccc4)cccc3C(=O)N([C@@H](C)CO)C[C@H]2C)cc1 |  | AC50 [1]: > 26 µM (inactive) |
| COc1ccc(S(=O)(=O)N(C)C[C@@H]2Oc3c(NC(=O)Nc4ccccc4)cccc3C(=O)N([C@H](C)CO)C[C@H]2C)cc1 |  | AC50 [1]: > 26 µM (inactive) |
| COc1ccc(S(=O)(=O)N(C)C[C@@H]2Oc3c(NC(=O)Nc4cccc5ccccc45)cccc3C(=O)N([C@H](C)CO)C[C@H]2C)cc1 |  | AC50 [1]: > 23.5 µM (inactive) |
| COc1ccc(S(=O)(=O)N(C)C[C@@H]2Oc3c(NS(=O)(=O)c4ccc(C)cc4)cccc3C(=O)N([C@@H](C)CO)C[C@H]2C)cc1 |  | protection from cytokine-induced depolarization ([2]; at 23.5 µM (top of the series)): -2.55% (inactive) |
| COc1ccc(S(=O)(=O)N(C)C[C@@H]2Oc3c(NC(=O)Nc4cccc5ccccc45)cccc3C(=O)N([C@H](C)CO)C[C@@H]2C)cc1 | -2.94% (inactive) |  |
| C[C@@H]1CN([C@@H](C)CO)C(=O)c2cccc(NC(=O)Nc3cccc4ccccc34)c2O[C@H]1CN(C)S(=O)(=O)c1cn(C)cn1 | 6.5% (inactive) |  |
| COc1ccc(S(=O)(=O)N(C)C[C@@H]2Oc3c(NC(=O)Nc4c(C)noc4C)cccc3C(=O)N([C@@H](C)CO)C[C@H]2C)cc1 | 2.03% (inactive) |  |
| COc1ccc(S(=O)(=O)N(C)C[C@@H]2Oc3c(NC(=O)Nc4cccc5ccccc45)cccc3C(=O)N(C(C)C)C[C@H]2C)cc1 | 36.6% (inactive) |  |
| C[C@@H]1CN([C@@H](C)CO)C(=O)c2cccc(NC(=O)Nc3ccccc3)c2O[C@H]1CN(C)S(=O)(=O)c1ccc(F)cc1 | 7.91% (inactive) |  |
| COc1ccc(S(=O)(=O)N(C)C[C@H]2Oc3c(NC(=O)Nc4cccc5ccccc45)cccc3C(=O)N([C@@H](C)CO)C[C@@H]2C)cc1 |  | AC50 [1]: > 26 µM (inactive) |
| C[C@@H]1CN([C@@H](C)CO)C(=O)c2cccc(NC(=O)Nc3cccc4ccccc34)c2O[C@H]1CN(C)C(=O)NC1CCCCC1 | -6.42% (inactive) |  |
| C[C@@H]1CN([C@@H](C)CO)C(=O)c2cccc(NC(=O)Nc3cccc4ccccc34)c2O[C@H]1CN(C)CC1CC1 | 10.5% (inactive) |  |
| C[C@@H]1CN([C@@H](C)CO)C(=O)c2cccc(NC(=O)Nc3cccc4ccccc34)c2O[C@H]1CN(C)C(=O)Nc1ccc(C(F)(F)F)cc1 |  | protection from cytokine-induced depolarization ([2]; at 23.5 µM (top of the series)): 7.29% (inactive) |
| COc1ccc(S(=O)(=O)N(C)C[C@@H]2Oc3c(NC(=O)Nc4ccc(F)cc4)cccc3C(=O)N([C@H](C)CO)C[C@H]2C)cc1 | 10.8% (inactive) |  |
| C[C@@H]1CN([C@@H](C)CO)C(=O)c2cccc(NC(=O)Nc3cccc4ccccc34)c2O[C@H]1CN(C)S(=O)(=O)c1ccc2c(c1)OCO2 | 32.4% (inactive) |  |
| COc1ccc(S(=O)(=O)N(C)C[C@@H]2Oc3c(NC(=O)Nc4cccc5ccccc45)cccc3C(=O)N([C@@H](C)CO)C[C@@H]2C)cc1 | -0.543% (inactive) |  |
| COc1ccc(S(=O)(=O)N(C)C[C@@H]2Oc3c(NC(=O)Nc4cccc5ccccc45)cccc3C(=O)N([C@@H](C)CO)C[C@H]2C)c(OC)c1 | 11.3% (inactive) |  |
| COc1ccc(S(=O)(=O)N(C)C[C@@H]2Oc3c(NC(=O)c4cccc5ccccc45)cccc3C(=O)N([C@@H](C)CO)C[C@H]2C)cc1 | 4.73% (inactive) |  |
| COc1ccc(S(=O)(=O)N(C)C[C@@H]2Oc3c(NC(=O)c4ccc(-c5nccs5)cc4)cccc3C(=O)N([C@@H](C)CO)C[C@H]2C)cc1 | -3.02% (inactive) |  |

Source: PubChem BioAssay AID488867 (Broad Institute, 2010)
